Results published in patent EP4790048A1, “S1PR4 REGULATOR COMPOUND FOR AUTOIMMUNE DISEASE TREATMENT AND APPLICATION THEREOF” (Shengyuan Zetong (Shanghai) Pharmaceutical Co., Ltd, priority 2023, dated 2025).

Tests used:
S1PR4 = molecular target: T1, S1PR4 (Homo sapiens, UniProt O95977); assay: S1PR4 internalization and recovery test in S1PR4-293T cells; format: cell-based; conditions: 1 µM, 37 °C, 1.5 hours; detected immediately, 5 hours or 20 hours after treatment
T1 construct: expressed in transfected cells; host or cells: 293T
T1 sequence (O95977 1-384): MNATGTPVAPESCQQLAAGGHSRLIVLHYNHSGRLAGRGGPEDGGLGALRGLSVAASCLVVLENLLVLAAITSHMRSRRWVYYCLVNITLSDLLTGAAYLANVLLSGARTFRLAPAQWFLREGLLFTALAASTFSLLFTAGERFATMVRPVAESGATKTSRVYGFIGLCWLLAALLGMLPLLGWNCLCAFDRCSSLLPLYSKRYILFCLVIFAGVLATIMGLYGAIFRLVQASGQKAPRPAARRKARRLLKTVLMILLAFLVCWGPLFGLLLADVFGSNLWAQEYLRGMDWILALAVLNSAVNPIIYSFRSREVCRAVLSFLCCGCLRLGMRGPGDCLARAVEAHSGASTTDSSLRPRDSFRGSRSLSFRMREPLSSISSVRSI
Description: Therefore, the recovery degree of S1PR4 after internalization caused by Compound 30 was evaluated, and the recovery effect following receptor internalization caused by Compound 30 was assessed in cells with high S1PR4 expression.

BALB/c mice = assay: DSS-induced chronic ulcerative colitis in mice (Example 6); format: in vivo
Source text: BALB/c mice were acclimatized for 7 days before the experiment. From Day 7 to Day 50 of the experiment, the mice were weighed daily and their blood and stool conditions were observed, scored and recorded according to the following table (Table 1). After random grouping, all groups except the Control group were given free access to 2-3% DSS solution for modeling from Day 7 to Day 14, while the Control group received normal drinking water during the same period. One cycle lasted 14 days and was repeated 3 times. Re-grouping was performed at the start of the final cycle to initiate drug administration. The Control group and Model group received no drug but the same solvent. The other groups were intragastrically administered 1 mg/kg, 3 mg/kg, 9 mg/kg, and SASP 500 mg/kg respectively. On Day 45, blood and colon samples were collected, colon length was measured, and a 1-2 cm colon segment was fixed with formaldehyde.
• BALB/c mice, male, 20-22 g • Dextran sulfate sodium MW: 36,000-50,000 (DSS) • 30 1 mg/kg, 3 mg/kg, 9 mg/kg, SASP (500 mg/kg) indicators were observed.
(1) Clinical Symptom Score: The mice were weighed daily and their blood and stool were observed during the experiment for DAI scoring, which was graded and recorded according to the following table (Table 1).
(2) After the experiment, the colon was removed, its length measured and weight recorded. The colon-to-body weight index (colon weight/body weight × 100%) and colon swelling rate (colon weight/length × 100%) were calculated.
Colonic tissue approximately 1 cm from the anal margin (0.5 cm) and ileocecal region tissue were collected for histopathological examination. After H&E staining, the tissues were scored under single-blind conditions to evaluate the level of distal colon inflammation and tissue damage; scoring was performed according to the Ameho criteria and calculated as follows: • Score 0: No abnormal findings in the texture. • Score 1: Mild inflammatory infiltration of the mucosa and/or submucosa (mixed with neutrophils), submucosal edema, punctate mucosal erosion, accompanied by capillary proliferation. The muscularis mucosae is intact. • Score 2: Changes of Score 1 account for more than 50%. • Score 3: Obvious inflammatory infiltration and edema (neutrophils are often predominant); ulcers usually penetrate the muscularis mucosae to reach the submucosa. There is little inflammatory cell infiltration in the muscularis propria and no muscle necrosis. • Score 4: Changes of Score 3 account for more than 50%. • Score 5: Large confluent ulcers with coagulative necrosis, massive neutrophil infiltration at the margins and few monocytes. Necrotic tissue penetrates the muscularis propria. • Score 6: Changes of Score 5 account for more than 50% of the specimen.
The fence function of Occludin separates the apical and basolateral sides of the epithelial cell plasma membrane, restricting the free flow of lipids on the cell membrane, facilitating the formation of cell polarity, maintaining the impermeability and rigidity of the intestinal mucosa, and preventing the entry of pathogenic microorganisms. The barrier function of Occludin can regulate the transport of small molecules and maintain tissue homeostasis. The expression and distribution of related proteins are detected by immunohistochemistry.
During modeling, the body weight of mice in the control group increased steadily. In the model group, during the first modeling period, mice were given 3% DSS drinking water ad libitum for 7 days, followed by tap water ad libitum for 7 days. On Day 4 of modeling, the body weight of mice began to decrease generally, reaching the lowest point on Day 8, and then started to rise. During the second modeling period, mice were given 2% DSS drinking water ad libitum for 7 days, followed by tap water ad libitum for 7 days. […]

Compound: CCc1cc(/C(C)=N/OCc2ccc(-c3ccccc3)c(C)c2)ccc1CN1CC[C@H](C(=O)O)C1 [Compound 30]
- S1PR4 internalization (expression of S1PR4 receptor on the cell surface) (S1PR4): sustained internalization of S1PR4 for up to 20 hours
- body weight during administration (BALB/c mice; 30 1 mg/kg): remained relatively stable during administration
- body weight during administration (BALB/c mice; 30 3 mg/kg): remained relatively stable during administration
- body weight change rate (BALB/c mice; 30 3 mg/kg, before and after administration, vs model group): significantly increased
- total DAI scores of the administration for 14 days (BALB/c mice; 30 3 mg/kg, vs model group): significantly lower
- colon pathological changes (H&E staining) (BALB/c mice; 30 at 1 mg/kg): no obvious inflammatory cell infiltration was observed
- colon pathological changes (H&E staining) (BALB/c mice; 30 at 3 mg/kg): no obvious inflammatory cell infiltration was observed
- daily DAI score (BALB/c mice; 30 treatment group, SASP 500 mg/kg, vs model group): decreased more rapidly
- body weight recovery (BALB/c mice; 30 treatment groups (1, 3, 9 mg/kg), SASP 500 mg/kg, vs model group): recovered rapidly and increased substantially
- colon length (BALB/c mice; Compound 30 3 mg/kg, vs Model group): significantly inhibited DSS-induced colon shortening
- colon length (BALB/c mice; Compound 30 9 mg/kg, vs Model group): significantly inhibited DSS-induced colon shortening
- Occludin expression in colonic mucosa (immunohistochemistry) (BALB/c mice; vs Model group): the expression of Occludin was increased
